Reference: patent US20240248442A1, “COMPUTER-IMPLEMENTED METHOD FOR APPLYING A GLUTAMINE […] ON AN AG[…]” (BASF SE, priority 2021, published 2024)

Test system: GLXMA (Glycine max; soybean plant)
Test: Greenhouse spray test of glufosinate efficacy on soybean plants under different nitrogen supply
Assay type: in vivo
Conditions: GF-solution 280 g/l glufosinate-ammonium, 300 g a.i./ha, water rate 200 l/ha, assessed 3 and 7 daa (time of this value not stated)
Experimental: GLXMA (Glycine max; soybean plant) plants were grown on soil in a green house. Before separation into single pots plants were watered with demineralized water (VE-water). After separation into single pots and splitting into four different nourishing groups, the pots were individually watered with 50 ml of the respective nutrient solution. The following recipe for the full-nutrient solution (5 mM N) mentioned in the book “Diagnose des Ernährungszustandes von Kulturpflanzen”, ISBN: 978-3-86263-118-6, table 3-2, page 94 has been used:
Plants were grown until the growth stage GS 61 (58-74 cm), where first symptoms of nutrient deficiency became visible. This included yellowing of the leaves which were watered with N-deficient media.
A spray application was performed in a high speed spray cabin with the following settings: used nozzle: TT 110 02; pressure: 3 bar; speed: 1.33 m/s; temperature: 22° C.; relative spray humidity: 55%
Spray solution: A GF-solution comprising 280 g/l glufosinate-ammonium is sprayed with an a.i. dose rate of 300 g/ha and a water rate of 200 l/ha. The control plants were sprayed with water (ddH2O) only. After spraying, all plants were watered with VE-water. A biological assessment was performed 3 and 7 days after application (daa).
In other words, to achieve an N-deficiency, the plants were separated in four different groups, which were watered with 4 different nutrient solutions. The “full” medium contained a final concentration of 5 mM N nitrogen-sources, whereas the N-deficiency media contained either 0 mM N (“null” medium) or 1.25 mM N and 2.5 mM N (“deficiency” media). Nutrient deficiency became visible at the GS 61.
In FIGS. 2 and 3, GLXMA is Glycine max (soybean plant), G ai/ha is grams of active ingredient per hectare, CWD is the control group without treatment, GF-Solution is the solution comprising 280 g/l glufosinate-ammonium. At full (5 mM) or half full (2.5 mM) nitrogen supply was detected and rated to an average of 35. Lowering the nitrogen supply to a level of 1.25 mM increases the efficacy of glufosinate to 48, which is visibly by more chlorotic and necrotic tissue. Under complete nitrogen deficiency the symptoms are boosted and result in an average efficacy rating of 75.

CP(=O)(O)CCC(N)C(=O)O (racemic) [glufosinate, (2RS)-2-amino-4-[hydroxy-(methyl)phosphinoyl]butyric acid]
average efficacy rating (biological assessment) (complete nitrogen deficiency (0 mM N)): 75
average efficacy rating (biological assessment) (full (5 mM) nitrogen supply): 35
average efficacy rating (biological assessment) (half full (2.5 mM) nitrogen supply): 35
average efficacy rating (biological assessment) (nitrogen supply 1.25 mM): 48
